In patent publication EP0090353A1, “2-Pyridone derivatives, method for their preparation and pharmaceutical compositions containing them” (priority 1982, dated 1983):

Tests used:
[1] = tested on: Adjuvans Arthritis; experiment: Adjuvant arthritis (method of Pearson); assay type: in vivo, männliche Ratten eines Wistar-Lewis-Stammes; conditions: Rattus norvegicus; male Wistar-Lewis rats, oral daily from day 1 to day 5; reduction of paw volume increase vs control; ED50 read graphically from dose-response curve
Text: 1. Adjuvans Arthritis Die Untersuchungen wurden nach der Methode von Pearson durchgeführt (Arthrit. Rheum. 2, 440 (1959)). […] Die zu […] Verbindungen wurden täglich vom 1. bis zum 5. Versuchstag oral appliziert. Tiere einer Kontrollgruppe erhielten nur das Lösungsmittel. Pro Dosierung und in der Kontrollgruppe wurden jeweils 8 […] unbehandelten Kontrollgruppe. Die ED50-Werte wurden graphisch aus […].

[2] = tested on: gastrale Ulcera; experiment: Gastric ulcerogenic effect; conditions: ratio of UD50 (gastric ulcers) to ED50 (adjuvant arthritis), rat
Text: Gastrale ulzerogene Wirkung
(§2) Die Untersuchungen erfolgten an jeweils 10 männlichen Sprague-Dawley Ratten im Körpergewicht von 200-300 g. 48 Stunden vor Applikation der zu vergleichenden Verbindungen bis zum Töten der Tiere wurde das Futter entzogen, bei freiem Zugang zum Trinkwasser. Die Ratten wurden 24 Stunden nach oraler Gabe getötet, der Magen entnommen, unter fließendem Wasser gereinigt und auf Schleimhautläsionen inspiziert. Als Ulzera galten alle makroskopisch sichtbaren Läsionen. Bestimmt wurde der Anteil der Tiere mit Ulzera pro dosi und die UD50 nach Lichtfield und Wilcoxon (J. Pharmacol. exp. Ther. 96, 99 (1949)).

[3] = Gastric ulcerogenic effect; conditions: rat, stomach, po
Text: Gastrale ulzerogene Wirkung
as §2

[4] = tested on: Ratten des Sprague-Dawley-Stammes; experiment: in vivo; conditions: ratio of LD50 (acute toxicity) to ED50 (adjuvant arthritis), rat
Text: (§1) Die Bestimmung der akuten Toxizitäten erfolgten in Standardmethoden an Ratten des Sprague-Dawley-Stammes. Pro Dosierung wurden 6 Tiere verwendet. Die LD50-Werte wurden nach Lichtfield und Wilcoxon bestimmt. [drawing 8]

[5] = in vivo; conditions: rat, in vivo; Sprague-Dawley rats, 6 animals per dose; Litchfield-Wilcoxon; read-out: LD50 akute Toxizität
Text: as §1

| Structure (SMILES) | ED50 [1] | TI(UD50/ED50) therapeutischer Index [2] | TD50 at 24 h [3] | TI (LD50 /ED50) therapeutischer Index [4] | LD50 [5] |
| --- | --- | --- | --- | --- | --- |
| CC(Oc1cccc(-c2ccccc2)n1)C(=O)O (racemic) [Beisp. 4, DL-2-(6-Phenylpyridin-2-oxy)-propansäure] | 20 mg/kg | 9 | 175 mg/kg | – | – |
| CC(CO)Oc1cccc(-c2ccccc2)n1 (racemic) [Beisp. 9, DL-2-(6-Phenylpyridin-2-oxy)-propanol] | 20 mg/kg | 11 | 220 mg/kg | 50 | 1000 mg/kg |
| CCOC(=O)[C@@H](C)Oc1cccc(-c2ccccc2)n1 [Beisp. 7, D(+)-2-(6-Phenylpyridin-2-oxy)-propansäureethylester] | 15 mg/kg | 8 | 125 mg/kg | – | – |
| COc1ccc2cc([C@H](C)C(=O)O)ccc2c1 [Naproxen, reference compound] | 15 mg/kg | – | – | – | – |
| CC1=C(CC(=O)O)c2cc(F)ccc2/C1=C\c1ccc([S+](C)[O-])cc1 (stereo not drawn) [Sulindac, reference compound] | 13 mg/kg | 2 | 26 mg/kg | – | – |
